This test has as its system brain myelination. The test can be described thus: Cross-sectional correlation analysis (GLM) of formula nutrient composition versus brain myelination (MWF by mcDESPOT MRI). Format: in vivo, human. Particulars: children up to 5 years fed different infant formulas during infancy; voxel-wise correlations, p<0.05 corrected. As for the experimental part: MRI brain scans of infants and children between 0 and 5 years were acquired using a white matter imaging technique. This technique provides a quantitative measure, the Myelin Water Fraction (MWF), which is a surrogate marker of myelin content. When mapped as a function of time across early childhood, myelination trajectories can be generated.
Infant formula composition: six infant formulas fed to infants participating in study were analyzed for their composition/level of myelin-relevant nutrients.
Infants included in this study were drawn from a larger longitudinal study of normal brain and behavioral development: the Brown university Assessment of Myelination and Behavior Across Maturation (BAMBAM). To focus on neurotypical development, children with known potential risk factors for learning, neurologic, or psychiatric disorders were specifically excluded during recruitment and enrollment. Thus, children with in utero alcohol or illicit substance exposure, premature (<37 weeks gestation) or multiple birth, fetal ultrasound abnormalities, complicated pregnancy (e.g., preeclampsia), APGAR scores<8, NICU admission, neurological disorder (e.g., head injury, epilepsy), psychiatric or developmental disorders in the infant, parents or siblings (including maternal depression requiring medication) were excluded. Ongoing screenings, such as the MCAT for autism, or CBCL for behavioral problems, were further used to remove enrolled children with clinically concerning behaviors or overt medical conditions (such as autism spectrum disorders).
A combination of retrospective and prospective data were acquired from parents via detailed medical histories and parental interview on type of infant formula used, percentage of breastfeeding to formula feeding, and length of exclusive breastfeeding. This information was updated at each study visit, which occurred approximately every 6 months for children under 2 years, and yearly for older children. Using this information, children were categorized into one of 2 groups: #1. Exclusively formula-fed; and #2. Exclusively breastfed for at least 90 days (3 months). Children who were fed a combination of breastmilk and formula within 3 months were excluded from our analysis. Infants within the exclusively formula-fed group were further sub-divided based on parental reports of the main infant formula used throughout the first 3 months. Main formula was defined as that given 90% of the time or more (in the case were parents used an alternate brand during vacation, for example).
Using these criteria, 94 exclusively formula-fed infants and young children were selected into group #1. These included 13 children who received formula #2; 28 who received formula #5; 8 who received formula #3; 39 who received formula #4; 5 who received formula #1 and 1 who received formula #6. A sample of 52 exclusively breast-fed infants were also selected and matched to the over formula-fed group with regards to mean age, gestation duration, birth weight, male:female ratio, ethnicity ratio, maternal education, family size, and number of languages spoken in the home (in addition to English).
Each infant was scanned using the mcDESPOT (multicomponent Driven Equilibrium Single Pulse Observation of T1 and T2) white matter imaging technique Deoni et al. (Magn. Reson. Med. 2008, 60:1372-1387), which provides a quantitative measure of the myelin water fraction (MWF) at each imaging point throughout the brain. All infants were scanned during natural (i.e. non-sedated) sleep using acoustically-muffled mcDESPOT imaging protocols. Total imaging times ranged from 19 minutes for the youngest toddlers to 24 minutes for the older 4 year-old children.
Turning to sphingomyelin, the “nutritional drivers for myelination (final general linear model)” value (“nutritional drivers for myelination” for short) is listed as “identified drivers”.

As to phosphatidylcholine, the “nutritional drivers for myelination” value is listed as “identified drivers”.

Consider Vitamin B12, for which the “nutritional drivers for myelination” value is given as “identified drivers”.

For the compound `CCCCC/C=C\C/C=C\C/C=C\C/C=C\CCCC(=O)O` [ARA, arachidonic acid], the “nutritional drivers for myelination” value is listed as “identified drivers”.

On to phosphatidylinositol, for which the “nutritional drivers for myelination” value is on record as “identified drivers”.

Take `C[N+](C)(C)CCO` [Choline]: the “nutritional drivers for myelination” value is recorded as “identified drivers”.

The record behind these values is patent US20180360093A1, “NUTRITIONAL COMPOSITIONS AND INFANT FORMULAS TO PROMOTE MYELINATION IN THE BRAIN” (NESTEC S.A., priority 2015, published 2018).
